Reference: patent publication US20260049061A1, “SMALL MOLECULES AS KCNQ2/3 (KV7.2/3) CHANNEL ACTIVATORS AND THEIR MEDICAL USE THEREOF” (Humanwell Pharmaceutical US, Inc., priority 2024, published 2026)

Biological target: T1, KNCQ2/3 (Kv7.2/7.3) (Homo sapiens, UniProt O43525+O43526)
T1 construct: host or cells: HEK293
Test: Kv7.2/7.3 (KNCQ2/3) activation assay, QPatch single concentration screen
Assay type: cell-based
Conditions: increase in current over baseline, HEK293 cells with overexpressed Kv7.2/3, compound 1 μM, steady-state current at +40 mV
Procedure: The ability of compounds to potentiate K-currents in HEK293 cells with overexpressed KNCQ2/3 (Kv7.2/7.3) was assessed using patch clamp on the QPatch automated screening platform.
Cell Line: The HEK293 cell line with overexpressed Kv7.2/7.3 was obtained from ICE Bioscience Inc. These HEK cells have been engineered to overexpress the Kv7.2/3 ion channels.
Cell Culture: Cells were maintained in the media containing DMEM (Corning, cat. #10-013-CV), 10% FBS (Gibco, cat. #10099141C), 800 μg/mL G418 (GPC, cat. #AK108) and 200 μg/mL hygromycin B (Solarbio, cat. #H8080). The cells were incubated at 37° C. in a humidified incubator under 5% carbon dioxide. Cells were grown in 6 cm dishes to ˜80% confluency. Currents were recorded 24 hours after channel induction.
Compound Plates: Test compounds were prepared by performing serial dilutions in DMSO (Sigma cat #D4540). Final dilutions were made in external recording solution with a final DMSO concentration of 0.1% DMSO. For single concentration screens each plate had 10 μM retigabine (Selleck Chemicals, cat. #S4733) as a positive control.
Electrophysiology: External solution contained 140 mM NaCl (Sigma cat. #S5886), 3.5 mM KCl (Sigma cat. #P5405), 1 mM MgCl2·6H2O (Sigma cat. #M2393), 2 mM CaCl2·2H2O (Sigma cat. #C7902), 10 mM D-Glucose (Sigma cat. #G8270), 10 mM HEPES (Santa Cruz cat. #SC-29097A), 1.25 mM NaH2PO4·2H2O, pH was adjusted to 7.4 with NaOH. Internal solution contained 125 mM K-Aspartic (Sigma cat. #G4500), 20 mM KCl, 10 mM EGTA (Sigma cat. #E3889), 1 mM MgCl2·6H2O, 5 mM Mg-ATP (Sigma cat. #A9187), 5 mM HEPES, pH was adjusted to 7.2 with KOH.
On the day of the experiment cells are washed with the external solution and harvested with 0.25% Trypsin EDTA (Gibco cat. #25200-072). Cells were then centrifuged at 1000 rpm/min for 5 minutes and resuspended in the external solution at ˜2.5×10^6 cells/mL. The cells were stirred with an equilibrium sharker for 20 minutes at room temperature before experiments started.
Potassium channel activity was measured on the QPatch 48X (Sophion Bioscience) using QPlates with 48-wells plate. The KCNQ current was recorded when the voltage was held at −80 mV for 3s, then stepped to −30 mV for 500 ms and back to […]. The process was repeated with an increment of 10 mV between −80 mV and +40 mV. Each cell was taken as an independent experiment and only one compound was tested per well.
Single Concentration Screen: Baseline conditions were obtained by recording 5 sweeps in the external solution only, this was repeated for three applications of the external solution. The effect of test compounds on elicited current was then assessed by recording 5 sweeps in the presence of a 1 μM compound solution. The steady-state current at the end of the 2 s pulse to +40 mV was measured to determine the fold increase from baseline.

| Structure (SMILES) | activity at 1 µM |
| --- | --- |
| CC(C)(C)CC(=O)Nc1nc2c(n1C(C)(C)C)CCCC2 [Compound 1] | 100 to 200% |
| CC(C)(C)CC(=O)Nc1nc2c(n1C1CCC1)CCCC2 [Compound 3] | 100 to 200% |
| CC(C)(C)CC(=O)Nc1nn2c(c1-c1ccc(F)cc1)CN(C(F)(F)F)CC2 [Compound 7] | 100 to 200% |
| CC(C)(C)CC(=O)Nc1nn2c(c1C1CCC1)CCCC2 [Compound 8] | 200 to 300% |
| CC(C)(CC(=O)Nc1nn2c(c1-c1ccc(F)cc1)CC(C(F)(F)F)CC2)C(F)(F)F (stereo not drawn) [Compound 10] | ≥ 300% |
| COC1CCn2nc(NC(=O)CC(C)(C)C)c(-c3ccc(F)cc3)c2C1 (stereo not drawn) [Compound 12] | 200 to 300% |
| CC(C)(C)CC(=O)Nc1nn2c(c1C1=CCCCC1)CC(C(F)(F)F)CC2 (stereo not drawn) [Compound 14] | 200 to 300% |
| CC(C)(C)CC(=O)Nc1nn2c(c1C1CCCCC1)CC(C(F)(F)F)CC2 (stereo not drawn) [Compound 15] | ≥ 300% |
| CC(C)(C)CC(=O)Nc1nn2c(c1-c1cccnc1)CC(C(F)(F)F)CC2 (stereo not drawn) [Compound 16] | 100 to 200% |
| CC(C)(C)CC(=O)Nc1nn2c(c1C1CCC1)CC(C(F)(F)F)CC2 (stereo not drawn) [Compound 20] | ≥ 300% |
| O=C(CC1CC(F)(F)C1)Nc1nn2c(c1-c1ccc(F)cc1)CC(C(F)(F)F)CC2 (stereo not drawn) [Compound 32] | ≥ 300% |
| O=C(CC12CC(C1)C2)Nc1nn2c(c1-c1ccc(F)cc1)CC(C(F)(F)F)CC2 (stereo not drawn) [Compound 33] | ≥ 300% |
| O=C(CCC(F)(F)F)Nc1nn2c(c1-c1ccc(F)cc1)CC(C(F)(F)F)CC2 (stereo not drawn) [Compound 34] | 200 to 300% |
| CC1(CC(=O)Nc2nn3c(c2-c2ccc(F)cc2)CC(C(F)(F)F)CC3)CC1 (stereo not drawn) [Compound 35] | ≥ 300% |
| CC(C)(F)CC(=O)Nc1nn2c(c1-c1ccc(F)cc1)CC(C(F)(F)F)CC2 (stereo not drawn) [Compound 36] | ≥ 300% |
| O=C(CC1CSC1)Nc1nn2c(c1-c1ccc(F)cc1)CC(C(F)(F)F)CC2 (stereo not drawn) [Compound 37] | 100 to 200% |
| CC(C)(C)CC(=O)Nc1nn2c(c1-c1ccc(F)cc1)CN(C1CC1)CC2 [Compound 43] | 200 to 300% |
| C=CCN1CCn2nc(NC(=O)CC(C)(C)C)c(-c3ccc(F)cc3)c2C1 [Compound 44] | 100 to 200% |
| CC(C)(CC(=O)Nc1nn2c(c1-c1ccc(F)cc1)CN(C1CC1)CC2)C(F)(F)F [Compound 47] | 100 to 200% |
| CC(C)(C)CC(=O)Nc1nc2n(c1C1CCCCC1)CCCC2 [Compound 53] | 100 to 200% |
| CC(C)(C)CC(=O)Nc1nc2n(c1-c1ccc(OC(F)(F)F)cc1)CCCC2 [Compound 54] | 200 to 300% |
| CC(C)(C)CC(=O)Nc1nn2c(c1-c1ccc(F)cc1)CC1(CC2)CC(F)(F)C1 [Compound 55] | ≥ 300% |
| CC(C)(C)CC(=O)Nc1nc2ncccc2n1-c1ccc(F)cc1 [Compound 60] | 100 to 200% |
| CCn1c(NC(=O)CC(C)(C)C(F)(F)F)nc2c1CCCC2 [Compound 64] | 100 to 200% |
| CCn1c(NC(=O)CC(C)(C)C)nc2c1CCCC2 [Compound 65] | 200 to 300% |

Tested on: PTZ-induced epileptic model using ICR mice
Test: PTZ-induced epilepsy model in ICR mice
Assay type: in vivo
Conditions: male ICR mice, 10 mg/kg oral 30 min before PTZ 100 mg/kg i.p., recorded for 30 min
Procedure: SPF-grade male ICR mice (22-24 g) were purchased from Human Silaike Jingda Laboratory Animal Co. Ltd., China and sent to the housing facility after veterinary inspection to adapt to the rearing environment. The mice were housed in cages for 3 days under suitable conditions (temperature at 22±1° C., humidity at 40-70%, sufficient water and food, 12 hours of daylight). On the formal test day, all mice were weighed, and those meeting the weight criteria were numbered at the base of their tails. […] Animals were orally administered compound 34 (10 mg/kg) 30 min before the i.p. injection of PTZ (100 mg/kg, Sigma, USA) for epilepsy modeling. The seizure response of the mice was evaluated based on the epilepsy grading criteria. The latency and incidence rate of each seizure grade were recorded for 30 min. After the experiment, the test animals were euthanized using carbon dioxide. The results are shown in Table 2 and FIG. 1 respectively.

| Structure (SMILES) | Latency to Racine IV Seizure | Latency to Racine VI Seizure |
| --- | --- | --- |
| O=C(CCC(F)(F)F)Nc1nn2c(c1-c1ccc(F)cc1)CC(C(F)(F)F)CC2 (stereo not drawn) [Compound 34] | 1393 s | 1658 s |
| CC(C)(CC(=O)Nc1nn2c(c1-c1ccc(F)cc1)CCCC2)C(F)(F)F [Compound 38] | 784 s | 1320 s |
| CC(C)CS(=O)(=O)Nc1nn2ccc(Cl)cc2c1-c1ccc(F)cc1 [Compound 62] | 636 s | 1409 s |

Tested on: formalin model using SD rats
Test: 2% formalin rat model (paw licking)
Assay type: in vivo
Conditions: male SD rats, 10 mg/kg oral 15 min before intraplantar 2.0% formalin, paw licking monitored for 60 min
Procedure: SPF male SD rats (170-190 g) were purchased from Human Silaike Jingda Laboratory Animal Co. Ltd., China. The rats were housed in cages for 3 days under suitable conditions (temperature at 22±1° C., humidity at 40-70%, sufficient water and food, 12 hours of daylight). The rats with a body weight of 220-240 g were numbered for further experiments. The rats were placed in the ZH-PAN801 automated rodent behavioral tracking system (Anhui Zhenghua Biologic Apparatus Facilities) for 60 min per day for an additional 3 days.
Paw licking behavior, a correlation of spontaneous pain, was tracked using the ZH-PAN801 automated rodent behavioral tracking system that can differentiate behaviors and locomotor activity of individually housed rats. The ZH-PAN801 system consists of sensor platforms which rest on two orthogonally placed force transducers and a third fixed point attached to a base plate. Each force transducer transforms the mechanical vibrations caused by animal movement into electrical signals, which are amplified, filtered, and digitized by the ZH-PAN801 system. Characteristic movements have their own unique vibrational patterns which the ZH-PAN801 software can distinguish. The cylinder cages (75 mm (radius)×310 mm (height)) consist of two halves to sensitize detection of vibrations. Thus, the base is separate from the sides, the lid, and sits directly on the sensor platform, while the sides and the lid hang from supports on the base plate.
Rats were equipped with the force transducer 15 min before the dosing. Animals were orally administered compound 21 (10 mg/kg) 15 min before the formalin injection. Rats were administered an intraplantar injection of formalin (50 μL, 2.0%, Sigma, USA) into the dorsal surface of the hindpaw attached with the force transducer to induce acute pain and placed in the automated rodent behavioral tracking system. Paw licking behavior was monitored for 60 min using the ZH-PAN801 behavior tracking system. The duration of paw licking behavior (in minutes) was collected from two distinctive phases, the early nociceptive phase occurring 0-10 min after formalin injection and the late phase thought to be associated with central sensitization, which peaks 11-60 min after formalin injection. Treatment effects were compared to vehicles by an unpaired t-test and one-way ANOVA using Graph Pad 9.0. The results are shown in Table 3 and FIG. 2 respectively.

| Structure (SMILES) | % MPE (10 mpk) |
| --- | --- |
| CC(C)(CC(=O)Nc1nn2c(c1-c1ccc(F)cc1)C[C@@H](C(F)(F)F)CC2)C(F)(F)F [Compound 24] | 97% |
| O=C(CCC(F)(F)F)Nc1nn2c(c1-c1ccc(F)cc1)CC(C(F)(F)F)CC2 (stereo not drawn) [Compound 34] | 65% |
| CC(C)(CC(=O)Nc1nn2c(c1-c1ccc(F)cc1)CCCC2)C(F)(F)F [Compound 38] | 87% |
| CC(C)(C)n1c(NC(=O)CC(C)(C)C(F)(F)F)nc2cc3c(cc21)CNC3 [Compound 58] | 89% |
| CC(C)CS(=O)(=O)Nc1nn2ccc(Cl)cc2c1-c1ccc(F)cc1 [Compound 62] | 89% |
